Test results taken from ChEMBL document CHEMBL4431301, “The Medicinal Chemistry of Dengue Virus” (J Med Chem, 2016).
Values belong to the molecule of their own block, whether it stands above or below them.

Experiments:
[1] = Inhibition of yeast alpha-glucosidase by double reciprocal plot method; design: species or system Saccharomyces cerevisiae
dengue virus type 2 [2] = assay: Antiviral activity against Dengue virus 2 Taiwanese PL046 infected in BHK21 cells after 48 hrs by plaque assay; assay type: functional, organism-based; settings: Taiwanese PL046, BHK-21, 48 h
dengue virus type 2 [3] = assay: Antiviral activity against Dengue virus 2 infected in BHK21 cells assessed after 3 to 5 days by crystal violet staining based plaque assay; assay type: functional, organism-based; settings: BHK-21
dengue virus type 2 [4] = assay: Antiviral activity against Dengue virus 2 infected in BHK21 cells assessed as reduction in virus replication after 24 hrs by renilla luciferase reporter gene assay; assay type: functional, organism-based; settings: BHK-21, 24 h
[5] = Cytotoxicity against BHK21 cells after 24 hrs by CellTiter-Glo luminescent assay; assay type: cell-based, Mesocricetus auratus, BHK-21; settings: hamster
dengue virus type 2 [6] = assay: Antiviral activity against Dengue virus 2 NGC infected in african green monkey Vero cells assessed as reduction in viral titer preincubated for 1 hr followed by viral infection measured after 5 days by immunoplaque assay; assay type: functional, organism-based
dengue virus type 2 [7] = assay: Antiviral activity against Dengue virus 2 S221 infected in ADE AG129 mouse model assessed as protection against viral infection at 20 to 100 mg/kg, po administered thrice daily for 7 days starting 1 hr prior to viral challenge measured for 10 days; assay type: functional
dengue virus type 2 [8] = assay: Antiviral activity against Dengue virus 2 3295 infected in BHK21 cells after 48 hrs by CFI assay; assay type: functional, organism-based; settings: Dengue virus, 3295, BHK-21, 48 h
dengue virus type 4 [9] = assay: Antiviral activity against Dengue virus 4 2270 infected in BHK21 cells after 48 hrs by CFI assay; assay type: functional, organism-based; settings: Dengue virus, 2270, BHK-21, 48 h
dengue virus type 1 [10] = assay: Antiviral activity against Dengue virus 1 2402 infected in BHK21 cells after 48 hrs by CFI assay; assay type: functional, organism-based; settings: Dengue virus, 2402, BHK-21, 48 h
dengue virus type 3 [11] = assay: Antiviral activity against Dengue virus 3 863 infected in BHK21 cells after 48 hrs by CFI assay; assay type: functional, organism-based; settings: Dengue virus, 863, BHK-21, 48 h
dengue virus type 2 [12] = assay: Antiviral activity against Dengue virus 2 NGC infected in african green monkey Vero cells assessed as reduction in viral titer at 17 uM after 44 hrs relative to control; assay type: functional
dengue virus type 2 [13] = assay: Antiviral activity against Dengue virus 2 NGC infected in african green monkey Vero cells assessed as reduction in viral titer at 6 uM after 44 hrs relative to control; assay type: functional
dengue virus type 2 [14] = assay: Antiviral activity against Dengue virus 2 NGC infected in human A549 cells assessed as reduction in viral titer after 48 hrs by plaque assay; assay type: functional, organism-based; settings: A549, 48 h
dengue virus type 2 [15] = assay: Antiviral activity against Dengue virus 2 NGC infected in HeLa cells assessed as reduction in viral RNA replication after 48 hrs by luciferase assay; assay type: functional, organism-based
dengue virus type 3 [16] = assay: Antiviral activity against Dengue virus 3 34640 infected in human A549 cells assessed as reduction in viral titer after 48 hrs by plaque assay; assay type: functional, organism-based; settings: Dengue virus, 34640, A549, 48 h
dengue virus type 1 [17] = assay: Antiviral activity against Dengue virus 1 West Pacific infected in human A549 cells assessed as reduction in viral titer after 48 hrs by plaque assay; assay type: functional, organism-based; settings: A549, 48 h
dengue virus type 4 [18] = assay: Antiviral activity against Dengue virus 4 22713 infected in BHK21 cells assessed as reduction in viral titer after 48 hrs by plaque assay; assay type: functional, organism-based; settings: Dengue virus, 22713, BHK-21, 48 h
West Nile virus = assay: Antiviral activity against West Nile virus 3356 infected in african green monkey Vero cells assessed as reduction in viral titer after 42 hrs by plaque assay; assay type: functional, organism-based; settings: West Nile virus, 3356, Vero
dengue virus type 1 [19] = assay: Antiviral activity against Dengue virus 1 Western Pacific 74 infected in african green monkey Vero cells assessed as reduction in viral replication after 48 hrs by luciferase reporter gene assay; assay type: functional, organism-based; settings: Western Pacific 74, Vero
Nonstructural protein 5 = Nonstructural protein 5 (Dengue virus, UniProt V5TFZ2); assay: Inhibition of N-terminal GST tagged recombinant Dengue virus 3 2'-O methyltransferase expressed in Escherichia coli BL21 cells by scintillation counting analysis; design: species or system dengue virus type 3
Sequence of Nonstructural protein 5 (V5TFZ2 whole entry): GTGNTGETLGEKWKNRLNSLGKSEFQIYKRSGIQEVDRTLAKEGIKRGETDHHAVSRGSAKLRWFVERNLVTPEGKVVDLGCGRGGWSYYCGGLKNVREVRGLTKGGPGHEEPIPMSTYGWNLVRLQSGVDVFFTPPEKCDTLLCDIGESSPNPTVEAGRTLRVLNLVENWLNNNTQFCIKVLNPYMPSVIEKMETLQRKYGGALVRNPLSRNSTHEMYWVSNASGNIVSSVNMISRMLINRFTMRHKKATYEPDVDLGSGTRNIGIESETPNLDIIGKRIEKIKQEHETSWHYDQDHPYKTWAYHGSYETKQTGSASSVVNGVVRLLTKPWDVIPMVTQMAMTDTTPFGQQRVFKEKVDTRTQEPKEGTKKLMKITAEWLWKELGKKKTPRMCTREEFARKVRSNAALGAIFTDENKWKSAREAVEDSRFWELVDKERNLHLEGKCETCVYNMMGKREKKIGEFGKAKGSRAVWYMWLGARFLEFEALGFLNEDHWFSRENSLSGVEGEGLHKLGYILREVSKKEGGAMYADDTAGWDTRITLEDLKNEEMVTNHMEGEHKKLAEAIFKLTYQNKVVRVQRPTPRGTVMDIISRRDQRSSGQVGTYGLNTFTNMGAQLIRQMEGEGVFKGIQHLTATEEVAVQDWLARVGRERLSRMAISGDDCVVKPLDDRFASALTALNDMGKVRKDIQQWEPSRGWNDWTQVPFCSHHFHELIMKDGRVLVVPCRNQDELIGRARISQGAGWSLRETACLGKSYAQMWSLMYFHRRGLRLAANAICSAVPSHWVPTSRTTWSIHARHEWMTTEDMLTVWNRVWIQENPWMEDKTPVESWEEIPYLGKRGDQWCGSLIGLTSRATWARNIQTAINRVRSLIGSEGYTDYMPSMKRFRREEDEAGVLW

[20] = Inhibition of N-terminal GST tagged recombinant Dengue virus 3 N-7 methyltransferase expressed in Escherichia coli BL21 cells by scintillation counting analysis; design: species or system dengue virus type 3

Ki [1]: 53 nM
SMILES: O=C(NC[C@H]1N[C@H](CO)[C@@H](O)[C@@H]1O)C1Cc2ccccc21 (some centres not stated)

EC50 (dengue virus type 2 [2]): 4700 nM
SMILES: CCCCCCCCCCN1[C@H](CO)[C@@H](O)[C@H](O)[C@H]1CNC(=O)C1Cc2ccccc21 (some centres not stated)

EC50 (dengue virus type 2 [3]): 1080 nM
EC50 (dengue virus type 2 [4]): 7410 nM
SMILES: CCN(CC)Cc1cc(Nc2ccnc3cc(Cl)ccc23)ccc1O [AMODIAQUINE]
CC50 at 24 h [5]: 52100 nM

SMILES: OC[C@@H]1[C@@H](O)[C@H](O)[C@@H](O)CN1CCCCCCCCC1CCCO1 (some centres not stated)
EC50 (dengue virus type 2 [6]): 21700 nM
Activity (dengue virus type 2 [7]): 100%

SMILES: CCCC(=O)O[C@H]1CN2CC[C@H](O)[C@@H]2[C@@H](O)[C@@H]1O [CELGOSIVIR]
EC50 (dengue virus type 2 [8]): 200 nM
EC50 (dengue virus type 4 [9]): 220 to 680 nM
EC50 (dengue virus type 1 [10]): 220 to 680 nM
EC50 (dengue virus type 3 [11]): 220 to 680 nM

SMILES: O=C(Nc1cccc(Cn2cc(-c3cccc(S(=O)(=O)Nc4ccccc4C(=O)O)c3)cn2)c1)c1ccc(C(=O)c2ccccc2)cc1
fold change (FC) (dengue virus type 2 [12]): 4.5
fold change (FC) (dengue virus type 2 [13]): 3.4

EC50 (dengue virus type 2 [15]): 1900 nM
SMILES: O=C1C[C@]2(C(=O)Nc3ccc(Cl)cc32)c2cnn(Cc3ccc(Cl)cc3)c2N1
EC50 (dengue virus type 2 [14]): 10 to 80 nM
EC50 (dengue virus type 3 [16]): 10 to 80 nM
EC50 (dengue virus type 1 [17]): > 20000 nM
EC50 (dengue virus type 4 [18]): > 20000 nM

EC50 (dengue virus type 1 [19]): 17000 nM
SMILES: O=C(c1ccccc1)N1N=C(c2cccs2)CC1c1ccc(Cl)cc1 (configuration not stated)
EC50 (West Nile virus): 28000 nM

Ki (Nonstructural protein 5): 170 nM
SMILES: N[C@@H](CCSC[C@H]1O[C@@H](n2cnc3c(NCc4cccc(Cl)c4)ncnc32)[C@H](O)[C@@H]1O)C(=O)O
Ki [20]: 820 nM
